Test results reported in the supplement of paper PMC13380429.

Tests used:
[1] = system: HepG2; assay: cell viability relative to DMSO; higher = less toxic; conditions: 72 h
[2] = system: Vero E6; assay: as above; conditions: 72 h
[3] = system: Calu-3; assay: as above; conditions: 72 h
[4] = system: Caco-2; assay: as above; conditions: 72 h
[5] = system: U2OS; assay: as above; conditions: 72 h
[6] = system: HepG2; assay: relative viability EC50 (midpoint between 100% and the lowest measured viability); higher = less toxic; conditions: 72 h
[7] = system: Vero E6; assay: as above; conditions: 72 h
[8] = system: Calu-3; assay: as above; conditions: 72 h
[9] = system: Caco-2; assay: as above; conditions: 72 h
[10] = system: U2OS; assay: as above; conditions: 72 h
[11] = system: HepG2; assay: drug sensitivity score (DSS) for viability; higher = more toxic; extreme values may be limits of the assay; conditions: 72 h
[12] = system: Vero E6; assay: as above; conditions: 72 h
[13] = system: Calu-3; assay: as above; conditions: 72 h
[14] = system: Caco-2; assay: as above; conditions: 72 h
[15] = system: U2OS; assay: as above; conditions: 72 h
[16] = system: A549-ACE2 infected with SARS-CoV-2; assay: cell count relative to DMSO; higher = less toxic; conditions: 24 h
[17] = system: A549-ACE2; assay: drug-induced phospholipidosis relative to tamoxifen; higher = more phospholipidosis
[18] = system: A549-ACE2 infected with SARS-CoV-2; assay: morphology score (similarity to uninfected cells); higher = more like uninfected cells; conditions: 24 h
[19] = system: A549-ACE2 infected with SARS-CoV-2; assay: SARS-CoV-2 infection rate relative to DMSO; higher = more infection; conditions: 24 h

CCCCCCCCCC(=O)OCCN1CCN(CCCN2c3ccccc3Sc3ccc(C(F)(F)F)cc32)CC1 [fluphenazine-decanoate]
cell viability [%]
Conditions	[1]	[2]	[3]	[4]	[5]
1 nM	95.5	104	101	111	97.2
10 nM	97.4	105	95.8	84.8	100
100 nM	96.9	96.3	98.5	96.3	99
1000 nM	93.7	106	107	98	100
10000 nM	108	105	91.6	92.1	96.9

Conditions	drug sensitivity score	relative viability EC50 [µM]
[6]	–	> 10
[7]	–	> 10
[8]	–	> 10
[9]	–	> 10
[10]	–	> 10
[11]	0	–
[12]	0	–
[13]	0	–
[14]	0	–
[15]	0	–

CC(C)C[C@@H]1NC(=O)[C@@H](C(C)C)NC(=O)[C@@H]2CCCN2C(=O)[C@@H](CC(=O)O)NC(=O)[C@@H](Cc2c[nH]c3ccccc23)NC1=O [BQ-123]
cell viability [%]
Conditions	[1]	[2]	[3]	[4]	[5]
1 nM	95.4	96.2	93.7	96.4	99.7
10 nM	100	102	94.5	93.2	96
100 nM	98	92.2	95.8	103	101
1000 nM	110	99.7	90.6	91.4	95
10000 nM	108	104	100	109	101

Conditions	drug sensitivity score	relative viability EC50 [µM]
[6]	–	> 10
[7]	–	> 10
[8]	–	> 10
[9]	–	> 10
[10]	–	> 10
[11]	0	–
[12]	0	–
[13]	0	–
[14]	0	–
[15]	0	–

CC(C)(C)Cn1c(N)nc2ccc(-c3[nH]c(C(C)(C)C)nc3-c3ccc(F)cc3)nc21
Conditions	SARS-CoV-2 infection rate, [19] [%]	cell count, [16] [%]	cell viability, [1] [%]	cell viability, [2] [%]	cell viability, [3] [%]	cell viability, [4] [%]	cell viability, [5] [%]	morphology score, [18]
1 nM	–	–	97	93.2	107	102	99	–
10 nM	–	–	92.8	94.5	94.6	98.1	98.4	–
100 nM	–	–	100	83.6	85.5	89.6	95.2	–
0.3 µM	118	87	–	–	–	–	–	-0.39
1000 nM	–	–	94.9	72.4	75.3	86.6	91.7	–
3 µM	8	129	–	–	–	–	–	0.95
10000 nM	–	–	85.3	58.7	54.1	68	77.4	–
10 µM	4	124	–	–	–	–	–	0.96
30 µM	8	100	–	–	–	–	–	0.66

Conditions	drug sensitivity score	relative viability EC50 [µM]
[6]	–	> 10
[10]	–	> 10
[11]	0.6	–
[12]	6.7	–
[13]	6.1	–
[14]	2.9	–
[15]	1.2	–

drug-induced phospholipidosis [%], [17]
Conditions	0.3 µM	0.833333 µM	3.33333 µM	6.66667 µM	10 µM	30 µM
24 h	-0.05	-0.99	3.52	13.5	24.9	60.6
48 h	1.57	1.82	5.06	15.9	25.2	57.1
72 h	2.63	3.92	4.98	13.2	27	–
